We go through 9 compounds from ChEMBL document CHEMBL5107958, “Phosphoramidate Prodrugs Continue to Deliver, The Journey of Remdesivir (GS-5734) from RSV to SARS-CoV-2” (ACS Med Chem Lett, 2022).

Data set [1] concerns Hepatitis C virus. Description: Antiviral activity against HCV assessed as reduction in viral replication by measuring parent nucleoside compound. Type of data set: functional, organism-based, Hepacivirus hominis.
The subject of data set [2] is Hepatitis C virus. The data set can be described thus: Antiviral activity against HCV assessed as reduction in viral replication by measuring monophosphate prodrug metabolite. Type of data set: functional, organism-based, Hepacivirus hominis.
Data set [3] is described as follows: AUC (0 to infinity) in cynomolgus monkey at 5 mg/kg, po measured for 0.25 to 4 hrs post-administration. Format: ADME, organism-based, Macaca fascicularis. The arrangement: time upper 4 hrs, dose 5 mg/kg, time lower 0.25 hrs, route po. The note with it: in vivo.
The nature of data set [4]: Prodrug conversion in cynomolgus monkey assessed as AUC (0 to last) of parent nucleoside compound at 5 mg/kg, po measured for 0.25 to 4 hrs post-administration. Type of data set: ADME, organism-based, Macaca fascicularis. Set-up: time lower 0.25 hrs, dose 5 mg/kg, time upper 4 hrs, route po. The note with it: in vivo.
Data set [5] is described as follows: AUC (0 to infinity) in dog at 5 mg/kg, po via gavage measured for 0.25 to 24 hrs post-administration. The note with it: in vivo. Set-up: dose 5 mg/kg, time upper 24 hrs, time lower 0.25 hrs, route po. Type of data set: ADME, organism-based, Canis lupus familiaris.
The nature of data set [6]: Prodrug conversion in dog assessed as AUC (0 to last) of parent nucleoside compound at 5 mg/kg, po via gavage measured for 0.25 to 24 hrs post-administration. Format: ADME, organism-based, Canis lupus familiaris. The arrangement: time upper 24 hrs, time lower 0.25 hrs, dose 5 mg/kg, route po. The note with it: in vivo.
A short description of data set [7]: Half life in Beagle dog at 0.5 mg/kg, iv measured for 0.08 to 24 hrs post-dose. The note with it: in vivo, time 0.08-24 hrs. Type of data set: ADME, organism-based, Canis lupus familiaris.
The nature of data set [8]: Volume of distribution at steady state in Beagle dog at 0.5 mg/kg, iv measured for 0.08 to 24 hrs post-dose. Format: ADME, organism-based, Canis lupus familiaris. The note with it: in vivo, time 0.08-24 hrs, read-out: Vdss.
Data set [9] is described as follows: AUC (0 to infinity) in Beagle dog at 0.5 mg/kg, iv measured for 0.08 to 24 hrs post-dose. Type of data set: ADME, organism-based, Canis lupus familiaris. The arrangement: dose 0.5 mg/kg, time upper 24 hrs, time lower 0.08 hrs, route iv. The note with it: in vivo.
Data set [10] in a line: AUC (0 to infinity) in Beagle dog at 3 mg/kg, po via gavage measured for 0.08 to 24 hrs post-dose. Type of data set: ADME, organism-based, Canis lupus familiaris. The arrangement: time lower 0.08 hrs, dose 3 mg/kg, time upper 24 hrs, route po. The note with it: in vivo.
Data set [11] in a line: Oral bioavailability in Beagle dog at 3 mg/kg administered via gavage measured for 0.08 to 24 hrs post-dose. Format: ADME, organism-based, Canis lupus familiaris. The note with it: in vivo, time 0.08-24 hrs.
Data set [12] in a line: AUC (0 to infinity) in overnight fasted dog at 100 mg/kg, po measured upto 24 hrs. Format: ADME, organism-based, Canis lupus familiaris. The arrangement: dose 100 mg/kg, time < 24 hrs, route po. The note with it: in vivo.
Data set [13] can be described thus: Prodrug conversion in overnight fasted dog assessed as AUC (0 to last) of parent nucleoside compound at 100 mg/kg, po measured upto 24 hrs. Format: ADME, organism-based, Canis lupus familiaris. The arrangement: dose 100 mg/kg, time < 24 hrs, route po. The note with it: in vivo.
Data set [14] is described as follows: AUC (0 to infinity) in cynomolgus monkey at 30 mg/kg, po. Format: ADME, organism-based, Macaca fascicularis. The arrangement: time infinity, dose 30 mg/kg, route po. The note with it: in vivo.
Data set [15] can be described thus: Prodrug conversion in cynomolgus monkey assessed as AUC (0 to last) of parent nucleoside compound at 30 mg/kg, po. The note with it: in vivo. Set-up: time 0 - last, dose 30 mg/kg, route po. Format: ADME, organism-based, Macaca fascicularis.
Data set [16] in a line: Prodrug conversion in cynomolgus monkey lung assessed as triphosphate metabolite formation at 30 mg/kg, po measured after 24 hrs. The note with it: in vivo. Format: ADME, organism-based, Macaca fascicularis.
For data set [17], the system named is Ebolavirus. The data set can be described thus: Antiviral activity against Ebola infected in human macrophages assessed as reduction in viral replication. Type of data set: functional, organism-based. The note with it: Orthoebolavirus, Macrophage.
The subject of data set [18] is Ebolavirus. The data set can be described thus: Antiviral activity against Ebola infected in human HeLa cells assessed as reduction in viral replication. Type of data set: functional, organism-based. The note with it: Orthoebolavirus.
The subject of another data set is Marburgvirus. Description: Antiviral activity against MARV Rec. Bat371-GFP infected in human Huh-7 cells assessed as reduction in viral replication incubated for 48 to 144 hrs by fluorescence based assay. Type of data set: functional, organism-based. The note with it: Orthomarburgvirus.
Data set [19] concerns Nipah virus. Description: Antiviral activity against Nipah M1999 infected in human HeLa cells assessed as reduction in viral replication incubated for 48 to 144 hrs by reporter virus assay. Type of data set: functional, organism-based. The note with it: Henipavirus nipahense.
The subject of data set [20] is Nipah virus. The data set can be described thus: Antiviral activity against Nipah B2004 infected in human NCI-H358 cells assessed as reduction in viral replication incubated for 48 to 144 hrs by reporter virus assay. Type of data set: functional, organism-based. The note with it: Henipavirus nipahense.
Data set [21] concerns Measles morbillivirus. The data set can be described thus: Antiviral activity against Measles Rec.rMVEZGFP(3) infected in human HeLa cells assessed as reduction in viral replication incubated for 48 to 144 hrs by fluorescence based assay. Format: functional, organism-based.
Data set [22] has as its system Measles morbillivirus. Description: Antiviral activity against Measles virus infected in HMVEC cells assessed as reduction in viral replication. Format: functional, organism-based.
A further data set relates to SARS-CoV. The data set can be described thus: Antiviral activity against SARS-CoV infected in HAE cells assessed as reduction in viral replication at MOI of 0.5 preincubated for 3 hrs followed by virus removal measured after 48 hrs by Hoechst 33258 staining based assay. The note with it: Severe acute respiratory syndrome-related coronavirus. Format: functional, organism-based.

Data set [23] relates to SARS-CoV-2. Description: Antiviral activity against SARS-CoV-2 infected in human A549 cells expressing hACE2 assessed as reduction in viral replication at MOI of 0.025 incubated for 48 hrs by luciferase based assay. The note with it: Severe acute respiratory syndrome coronavirus 2, A549, 48 h. Type of data set: functional, organism-based.
Data set [24] relates to SARS-CoV-2. The data set can be described thus: Antiviral activity against SARS-CoV-2 infected in human Huh-7 cells assessed as reduction in virus-induced cytopathic effect at MOI of 0.0037 measured after 4 days by MTS assay. The note with it: Severe acute respiratory syndrome coronavirus 2, Huh-7, 96 h. Type of data set: functional, organism-based. For orientation: Protection from cytopathic effect is a common read-out in antiviral testing.

Data set [25] deals with SARS-CoV-2. Description: Antiviral activity against SARS-CoV-2 infected in African green monkey Vero E6 cells assessed as reduction in viral replication. Format: functional, organism-based. The note with it: Severe acute respiratory syndrome coronavirus 2, Vero C1008.
Data set [26] relates to SARS-CoV-2. The data set can be described thus: Antiviral activity against SARS-CoV-2 infected in human Caco-2 cells assessed as reduction in viral replication at MOI of 0.01 measured after 72 hrs by qRT-PCR analysis. Format: functional, organism-based. The note with it: Severe acute respiratory syndrome coronavirus 2, Caco-2, 72 h. (In general: Real-time PCR tracks product formation cycle by cycle.)

The subject of data set [27] is SARS-CoV-2. Description: Antiviral activity against SARS-CoV-2 infected in human Calu-3 cells assessed as reduction in viral replication at MOI of 0.01 measured after 72 hrs by qRT-PCR analysis. Format: functional, organism-based. The note with it: Severe acute respiratory syndrome coronavirus 2, Calu-3, 72 h.
The test system of data set [28] is SARS-CoV-2. The data set can be described thus: Antiviral activity against SARS-CoV-2 infected in human Calu-3 2B4 cells assessed as reduction in viral replication at MOI of 0.01 preincubated for 2 hrs followed by viral infection for 30 mins and subsequent virus removal and addition of medium containing compound measured after 72 hrs by RT-qPCR analysis. Format: functional, organism-based. The note with it: Severe acute respiratory syndrome coronavirus 2, Calu-3 2B4.

In data set [29] the test system is SARS-CoV-2. The data set can be described thus: Antiviral activity against SARS-CoV-2 infected in human PSC-derived lung epithelial cells assessed as reduction in viral replication. The note with it: Severe acute respiratory syndrome coronavirus 2, Epithelial cell. Format: functional, organism-based.
The test system of data set [30] is Middle East respiratory syndrome-related coronavirus. The data set can be described thus: Antiviral activity against MERS-CoV infected in HAE cells assessed as reduction in viral replication at MOI of 0.5 incubated for 3 hrs followed by virus removal measured after 48 hrs by Hoechst 33258 staining based assay. Format: functional, organism-based.
Data set [31] deals with Hepatitis C virus. Description: Antiviral activity against HCV infected in human Huh-7 cells expressing Ces1 assessed as reduction in viral replication by measuring monophosphate prodrug metabolite. Type of data set: functional, organism-based, Hepacivirus hominis.

Consider `CC(C)OC(=O)[C@H](C)N[P@](=O)(OC[C@H]1O[C@@H](n2ccc(=O)[nH]c2=O)[C@@](C)(F)[C@@H]1O)Oc1ccccc1`, for which the EC50 (as a rule, the concentration needed to bring the measured effect to its halfway point) in the data set with Hepatitis C virus [1] is above 50000 nM; in the data set with Hepatitis C virus [2], 420 nM. The AUC(0-inf) (usually the area under the concentration-time curve extrapolated to infinity) in data set [3] was 0.16 µM·h; in data set [5] it was 0.78 µM·h. Moreover, the AUClast came out at 0.12 µM·h in [4] and 27 µM·h in data set [6].
`CC(C)OC(=O)[C@H](C)N[P@](=O)(OC[C@H]1O[C@@](C#N)(c2cnc3c(N)ncnn23)[C@](C)(O)[C@@H]1OC(=O)C(C)C)Oc1ccccc1`: the half-maximal effective concentration (EC50) in the data set on Hepatitis C virus [1] is above 89000 nM; in the data set on Hepatitis C virus [2], 460 nM.
`CCOC(=O)[C@H](C)N[P@@]1(=O)OC[C@H]2O[C@@H](n3cnc4c(OCC)nc(N)nc43)[C@](C)(F)[C@@H]2O1`: the half-life – broadly, the time in which the quantity being followed falls by half – in [7] is 18 min. For the same compound, in data set [8], the Vd was found to be 0.5 L/kg. Also, the area under the curve AUC(0-inf) in [9] was found to be 0.61 µM·h; in data set [10], 1.6 µM·h. The bioavailability (commonly dose-corrected exposure relative to a reference, in per cent) in data set [11] is 44%.
`COC(=O)[C@H](C)NP(=O)(OC[C@@H]1C=C[C@H](n2cc(C)c(=O)[nH]c2=O)O1)Oc1ccc(Br)cc1` (stereo not given in full) had an AUC(0-inf) in data set [12] of 23.1 µM·h. Moreover, the AUClast in [13] turned out to be 262 µM·h.
As to `CNc1nc(N)nc2c1ncn2[C@@H]1O[C@H](COP(=O)(N[C@@H](C)C(=O)OC(C)C)Oc2ccccc2)[C@@H](O)[C@@]1(C)F` (stereo not given in full) [BEMNIFOSBUVIR], the values for the 50% effective concentration (EC50) with Hepatitis C virus [1] and in the data set on Hepatitis C virus [2] were 69000 nM and 13 nM, respectively.
The compound `CNc1nc(N)nc2c1ncn2[C@@H]1O[C@H](CO[P@@](=O)(N[C@@H](C)C(=O)OC(C)C)Oc2ccccc2)[C@@H](O)[C@@]1(C)F` [BEMNIFOSBUVIR] returned an area under the curve AUC(0-inf) in [14] of 0.44 µM·h. In addition, in data set [15], the AUClast was found to be 1.56 µM·h. In data set [16], the Drug metabolism is recorded as 0.14 nmol/g.
Turning to `COc1nc(N)nc2c1ncn2[C@@H]1O[C@H](COP(=O)(N[C@@H](C)C(=O)OCC(C)(C)C)Oc2cccc3ccccc23)[C@@H](O)[C@@]1(C)O` (stereo not given in full) [BMS-986094], the results for the EC50 in the data set on Hepatitis C virus [1] and in the data set with Hepatitis C virus [2] were 3500 nM and 35 nM, respectively. Also, the total exposure AUC(0-inf) in [14] was determined as 0.026 µM·h.
In the case of `N#C[C@@]1(c2ccc3c(N)ncnn23)O[C@H](CO)[C@@H](O)[C@H]1O` [GS-441524], the EC50 in the data set with Ebolavirus [17] was above 20000 nM; with Ebolavirus [18] it was above 20000 nM; in the data set on Marburgvirus it was 1900 nM; in the data set with Nipah virus [19], 2120 nM; with Nipah virus [20] it was 2460 nM; in the data set with Measles morbillivirus [21], 1000 nM. Also, the EC50 with Measles morbillivirus [22] came out at 770 nM; in the data set with SARS-CoV, 180 nM; in the data set with SARS-CoV-2 [23], 869 nM; in the data set on SARS-CoV-2 [24], 1100 nM; in the data set on SARS-CoV-2 [25], 470 nM; in the data set on SARS-CoV-2 [26], 80 nM. Also, the EC50 turned out to be 250 nM in the data set with SARS-CoV-2 [27], 620 nM in the data set with SARS-CoV-2 [28], 740 nM with SARS-CoV-2 [29] and 860 nM in data set [30].
In the case of `CC(C)OC(=O)[C@@H](C)N[P@@](=O)(OC[C@H]1O[C@@H](n2ccc(=O)[nH]c2=O)[C@](C)(Cl)[C@@H]1O)Oc1ccccc1` [UPRIFOSBUVIR], the half-maximal effective concentration (EC50) in the data set on Hepatitis C virus [31] was 320 nM.
